Measurements reported in PubChem BioAssay (NCI).
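Compound exposure: 48 hours, 5 concentrations, 96-well plates. GI50 = concentration required for 50% inhibition of growth. TGI is the concentration that stops growth completely.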 Where a SMILES comes first, the peptide text is derived from it. Bridges are numbered along the chain shown (N, C = ends). [ ]: non-standard residue; d: D form. The star is where a group is joined. ξ: configuration not given here. ξDab(CH2SO3H) = NC(CCNCS(=O)(=O)O)C(=O)O; Heptanoyl(6-Me) = CC(C)CCCCC(=O)*; Dab = NCC[CH](N)C(=O)O

Assays:
Assay in all cases: DTP human tumour cell line panel, 48 h
786-0 renal = tested on: 786-0 renal
SK-MEL-2 melanoma = tested on: SK-MEL-2 melanoma
U251 CNS = tested on: U251 CNS
SF-295 CNS = tested on: SF-295 CNS
NCI-H23 lung = tested on: NCI-H23 lung
EKVX NSCLC = tested on: EKVX NSCLC
OVCAR-4 ovarian = tested on: OVCAR-4 ovarian
SK-MEL-28 melanoma = tested on: SK-MEL-28 melanoma
RPMI-8226 leukemia = tested on: RPMI-8226 leukemia
HS 578T breast = tested on: HS 578T breast

Row | SMILES | TGI (786-0 renal) | TGI (SK-MEL-2 melanoma) | TGI (U251 CNS) | TGI (SF-295 CNS) | TGI (NCI-H23 lung) | TGI (EKVX NSCLC) | TGI (OVCAR-4 ovarian) | TGI (SK-MEL-28 melanoma) | TGI (RPMI-8226 leukemia) | TGI (HS 578T breast) | GI50 (786-0 renal) | GI50 (SK-MEL-2 melanoma) | GI50 (U251 CNS) | GI50 (SF-295 CNS) | GI50 (NCI-H23 lung) | GI50 (EKVX NSCLC) | GI50 (OVCAR-4 ovarian) | GI50 (SK-MEL-28 melanoma) | GI50 (RPMI-8226 leukemia) | GI50 (HS 578T breast)
1 | CCCCC(C(=O)CCC(=O)Nc1ccc(Cl)c(Cl)c1)C(=O)C(C)C (centres undefined) | > 100 µM | > 100 µM | > 100 µM | > 100 µM | > 100 µM | > 100 µM | > 100 µM | > 100 µM | > 100 µM | – | – | – | – | – | – | – | – | – | – | –
2 | COc1cc(-c2oc3c(OC)cc(OC)c(O)c3c(=O)c2OC)cc(OC)c1OC | > 100 µM | – | > 100 µM | 7.55 µM | > 100 µM | > 100 µM | > 100 µM | > 100 µM | > 100 µM | 8.21 µM | – | – | – | – | – | – | – | – | – | –
3 | CC[C@@]1(O)C(=O)OCc2c1cc1n(c2=O)Cc2cc3cccc([N+](=O)[O-])c3nc2-1 | 1.29 µM | 24.8 µM | 3.07 µM | 16 µM | 4.19 µM | > 100 µM | 24.3 µM | > 100 µM | 64.5 µM | – | 0.3 µM | 6.11 µM | 0.312 µM | 0.346 µM | 0.486 µM | 96.9 µM | 4.04 µM | 43.9 µM | 1.71 µM | –
4 | Cc1cc(C)n(-c2ccnc3cc(Cl)ccc23)n1 | > 100 µM | > 100 µM | > 100 µM | > 100 µM | > 100 µM | > 100 µM | > 100 µM | > 100 µM | > 100 µM | – | – | – | – | – | – | – | – | – | – | –
5 | COc1ccc2cc(C(=O)/C=C/c3ccc(N(C)C)cc3)ccc2c1 | > 100 µM | > 100 µM | > 100 µM | > 100 µM | > 100 µM | 72.1 µM | > 100 µM | > 100 µM | > 100 µM | – | > 100 µM | 61.6 µM | 58.9 µM | > 100 µM | 41.6 µM | 21 µM | 81.7 µM | > 100 µM | > 100 µM | –
6 | Clc1ccc(Nc2ccnc(N3CCN(c4ccnc5cc(Cl)ccc45)CC3)n2)cc1 | 7.88 µM | – | 11.1 µM | 4.23 µM | 52.3 µM | – | > 100 µM | – | 15.1 µM | 7.79 µM | 2.38 µM | – | 2.84 µM | 1.73 µM | 4.32 µM | – | 2.56 µM | – | 2.75 µM | 1.75 µM
7 | COc1cc(O)c2c(c1)O[C@@H]1OCC[C@H]21 | > 100 µM | > 100 µM | > 100 µM | > 100 µM | > 100 µM | > 100 µM | > 100 µM | > 100 µM | > 100 µM | – | – | – | – | – | – | – | – | – | – | –
8 | CC(C)(C)[Si](C)(C)OC1[C@@H](O[Si](C)(C)C(C)(C)C)[C@@H](CNC(=O)NC(=O)CF)O[C@H]1n1cnc2c(NC(=O)Nc3ccccc3)ncnc21 (some centres undefined) | 15.9 µM | > 50 µM | 25.8 µM | – | > 50 µM | – | > 50 µM | > 50 µM | > 50 µM | > 50 µM | 7.46 µM | 30.9 µM | 9.67 µM | – | 14.3 µM | – | 6.18 µM | > 50 µM | 14 µM | 10.1 µM
9 | CCC(C)C1NC(=O)C(CCNCS(=O)(=O)O)NC(=O)C(NC(=O)C(CCNCS(=O)(=O)O)NC(=O)C(NC(=O)C(CCNCS(=O)(=O)O)NC(=O)CCCCC(C)C)C(C)O)CCNC(=O)C(C(C)O)NC(=O)C(CCNCS(=O)(=O)O)NC(=O)C(CCNCS(=O)(=O)O)NC(=O)C(C(C)CC)NC1=O (centres undefined) ({Heptanoyl(6-Me)}-[ξDab(CH2SO3H)]T[ξDab(CH2SO3H)][Dab][ξDab(CH2SO3H)]II[ξDab(CH2SO3H)][ξDab(CH2SO3H)]T; lactam 4-C; configuration not given here) | > 25 µM | > 25 µM | > 25 µM | > 25 µM | > 25 µM | > 25 µM | > 25 µM | > 25 µM | – | > 25 µM | 13 µM | 4.9 µM | 8.05 µM | 6.66 µM | 7.41 µM | > 25 µM | 11.3 µM | 2.72 µM | – | 7.65 µM
10 | COc1ccc(NC(=O)CC/C(CC(=O)c2ccco2)=N/NC(N)=S)cc1 | > 100 µM | > 100 µM | > 100 µM | > 100 µM | > 100 µM | > 100 µM | > 100 µM | – | > 100 µM | – | – | – | – | – | – | – | – | – | – | –
11 | COC(=O)c1ccccc1N1C(=O)Cc2ccccc2C1=O | > 100 µM | > 100 µM | > 100 µM | > 100 µM | > 100 µM | > 100 µM | – | > 100 µM | > 100 µM | – | – | – | – | – | – | – | – | – | – | –
12 | CC1(Br)CC2OC3(Br)C=CC(C)(O)C2(CC1=O)C3(C)C (centres undefined) | > 100 µM | > 100 µM | > 100 µM | > 100 µM | > 100 µM | > 100 µM | > 100 µM | > 100 µM | > 100 µM | – | – | – | – | – | – | – | – | – | – | –
13 | COc1ccc(Sc2nc3cc(N)cc(N)c3nc2-c2ccccc2)cc1 | > 100 µM | – | > 100 µM | > 100 µM | > 100 µM | – | – | > 100 µM | 84.4 µM | > 100 µM | 52.3 µM | – | > 100 µM | > 100 µM | > 100 µM | – | – | 24.4 µM | 3.96 µM | > 100 µM
14 | CCCNCC(=O)O[C@]1(CC)C(=O)OCc2c1cc1n(c2=O)Cc2cc3ccccc3nc2-1 | 0.117 µM | 3.68 µM | 0.244 µM | 2.1 µM | 0.321 µM | > 100 µM | 3.99 µM | 32.8 µM | 0.88 µM | – | – | – | – | – | – | – | – | – | – | –
15 | C=C1C(=O)O[C@H]2[C@H]1CC/C(C=Nc1c(N)cc(C(F)(F)F)cc1C(F)(F)F)=C\CC[C@@]1(C)O[C@@H]21 | 4.11 µM | 3.12 µM | 2.98 µM | 17.1 µM | 4.17 µM | – | 3.05 µM | 3.83 µM | 3.26 µM | 7.45 µM | 2.04 µM | 1.41 µM | 1.56 µM | 5.1 µM | 1.77 µM | – | 1.52 µM | 1.87 µM | 0.441 µM | 1.67 µM
16 | NC(N)=NC(N)=Nc1cnccn1 | > 100 µM | > 100 µM | > 100 µM | > 100 µM | > 100 µM | > 100 µM | > 100 µM | > 100 µM | – | – | – | – | – | – | – | – | – | – | – | –
